{
  "source": "patent US20260262643A1",
  "about": "“HERBICIDAL BENZOXAZINES” (FMC CORPORATION, priority 2022, published 2026)",
  "key": {"ducksalad": {"system": "ducksalad", "test": "Test D flooded paddy test", "format": "in vivo, Heteranthera limosa", "settings": "250 g ai/ha, applied to paddy water, visual rating after 13 to 14 days, scale 0 to 100 (0 no effect, 100 complete control)", "how_it_was_run": "(§1)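 2-leaf plants; flood 3 cm above soil; compound dosed into paddy water; greenhouse 13–14 d; visual rating vs controls, 0–100 (100 = complete control); dash = not tested.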"}, "soybean [1]": {"system": "soybean", "test": "Test C postemergence", "format": "in vivo, Glycine max", "settings": "Postemergence, 125 g ai/ha; 0 to 100 scale (0 no effect, 100 complete control), 10 days", "how_it_was_run": "(§2)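 Visual injury ratings on a 0–100 scale (100 = complete control) were made against untreated controls 10 days after treatment in the greenhouse. Compounds, formulated with surfactant in non-phytotoxic solvent, were sprayed on soil preemergence or onto one- to two-leaf plants 2–10 cm tall postemergence.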"}, "barnyardgrass [2]": {"system": "barnyardgrass", "test": "Test C preemergence", "format": "in vivo, Echinochloa crusgalli", "how_it_was_run": "as §2"}, "barnyardgrass [3]": {"system": "barnyardgrass", "test": "Test D flooded paddy test", "format": "in vivo, Echinochloa crus-galli", "settings": "250 g ai/ha, applied to paddy water, visual rating after 13 to 14 days, scale 0 to 100 (0 no effect, 100 complete control)", "how_it_was_run": "as §1"}, "ragweed [4]": {"system": "ragweed", "test": "Test C preemergence", "format": "in vivo, Ambrosia artemisiifolia", "how_it_was_run": "as §2"}, "kochia [5]": {"system": "kochia", "test": "Test C preemergence", "format": "in vivo, Bassia scoparia", "how_it_was_run": "as §2"}, "green foxtail [6]": {"system": "green foxtail", "test": "Test C preemergence", "format": "in vivo, Setaria viridis", "how_it_was_run": "as §2"}, "corn [7]": {"system": "corn", "test": "Test C preemergence", "format": "in vivo, Zea mays", "how_it_was_run": "as §2"}, "kochia [8]": {"system": "kochia", "test": "Test C postemergence", "format": "in vivo, Bassia scoparia", "settings": "10 days, 0 to 100 scale (0 no effect, 100 complete control)", "how_it_was_run": "as §2"}, "wheat [9]": {"system": "wheat", "test": "Test C postemergence", "format": "in vivo, Triticum aestivum", "settings": "Postemergence, 125 g ai/ha; 0 to 100 scale (0 no effect, 100 complete control), 10 days", "how_it_was_run": "as §2"}, "rice": {"system": "rice", "test": "Test D flooded paddy test", "format": "in vivo, Oryza sativa", "settings": "250 g ai/ha, applied to paddy water, visual rating after 13 to 14 days, scale 0 to 100 (0 no effect, 100 complete control)", "how_it_was_run": "as §1"}, "blackgrass [10]": {"system": "blackgrass", "test": "Test C preemergence", "format": "in vivo, Alopecurus myosuroides", "how_it_was_run": "as §2"}, "wheat [11]": {"system": "wheat", "test": "Test C preemergence", "format": "in vivo, Triticum aestivum", "how_it_was_run": "as §2"}, "oat, wild [12]": {"system": "oat, wild", "test": "Test C preemergence", "format": "in vivo, Avena fatua", "how_it_was_run": "as §2"}, "oat, wild [13]": {"system": "oat, wild", "test": "Test C postemergence", "format": "in vivo, Avena fatua", "settings": "10 days, 0 to 100 scale (0 no effect, 100 complete control)", "how_it_was_run": "as §2"}, "pigweed, palmer [14]": {"system": "pigweed, palmer", "test": "Test C postemergence", "format": "in vivo, Amaranthus palmeri", "settings": "10 days, 0 to 100 scale (0 no effect, 100 complete control)", "how_it_was_run": "as §2"}, "barnyardgrass [15]": {"system": "barnyardgrass", "test": "Test C postemergence", "format": "in vivo, Echinochloa crusgalli", "settings": "10 days, 0 to 100 scale (0 no effect, 100 complete control)", "how_it_was_run": "as §2"}, "soybean [16]": {"system": "soybean", "test": "Test C preemergence", "format": "in vivo, Glycine max", "how_it_was_run": "as §2"}, "corn [17]": {"system": "corn", "test": "Test C postemergence", "format": "in vivo, Zea mays", "settings": "10 days, 0 to 100 scale (0 no effect, 100 complete control)", "how_it_was_run": "as §2"}, "blackgrass [18]": {"system": "blackgrass", "test": "Test C postemergence", "format": "in vivo, Alopecurus myosuroides", "settings": "10 days, 0 to 100 scale (0 no effect, 100 complete control)", "how_it_was_run": "as §2"}, "horseweed": {"system": "horseweed", "test": "Test C postemergence", "format": "in vivo, Erigeron canadensis", "settings": "10 days, 0 to 100 scale (0 no effect, 100 complete control)", "how_it_was_run": "as §2"}, "ryegrass, Italian [19]": {"system": "ryegrass, Italian", "test": "Test C preemergence", "format": "in vivo, Lolium multiflorum", "how_it_was_run": "as §2"}, "sedge, umbrella": {"system": "sedge, umbrella", "test": "Test D flooded paddy test", "format": "in vivo, Cyperus difformis", "settings": "250 g ai/ha, applied to paddy water, visual rating after 13 to 14 days, scale 0 to 100 (0 no effect, 100 complete control)", "how_it_was_run": "as §1"}, "ragweed [20]": {"system": "ragweed", "test": "Test C postemergence", "format": "in vivo, Ambrosia artemisiifolia", "settings": "Postemergence, 125 g ai/ha; 0 to 100 scale (0 no effect, 100 complete control), 10 days", "how_it_was_run": "as §2"}, "green foxtail [21]": {"system": "green foxtail", "test": "Test C postemergence", "format": "in vivo, Setaria viridis", "settings": "10 days, 0 to 100 scale (0 no effect, 100 complete control)", "how_it_was_run": "as §2"}, "ryegrass, Italian [22]": {"system": "ryegrass, Italian", "test": "Test C postemergence", "format": "in vivo, Lolium multiflorum", "settings": "Postemergence, 125 g ai/ha; 0 to 100 scale (0 no effect, 100 complete control), 10 days", "how_it_was_run": "as §2"}, "pigweed, palmer [23]": {"system": "pigweed, palmer", "test": "Test C preemergence", "format": "in vivo, Amaranthus palmeri", "how_it_was_run": "as §2"}, "[24]": {"settings": "500 g ai/ha, preemergence, 0 to 100 scale (0 no effect, 100 complete control)"}, "[25]": {"settings": "Preemergence, 125 g ai/ha, 0 to 100 scale, 0 no effect, 100 complete control"}},
  "data": [
    {"compound": "Cc1ccc(-n2cnc(C3(C#N)CCC3)n2)cc1C(=O)N1C[C@H](C)Oc2c(Cl)cccc21", "note": "[Compound 402]", "values": [
      {"measurement": "Plant response rating, Ducksalad (Flood)", "setting": "ducksalad", "value": 45},
      {"measurement": "Plant response rating, Soybean", "setting": "soybean [1]", "value": 40},
      {"measurement": "Barnyardgrass plant response rating", "setting": "barnyardgrass [2]; [24]", "value": 100},
      {"measurement": "Plant response rating, Barnyardgrass", "setting": "barnyardgrass [2]; [25]", "value": 60},
      {"measurement": "Plant response rating, Barnyardgrass (Flood)", "setting": "barnyardgrass [3]", "value": 25},
      {"measurement": "Ragweed plant response rating", "setting": "ragweed [4]; [24]", "value": 50},
      {"measurement": "Plant response rating, Ragweed", "setting": "ragweed [4]; [25]", "value": 0},
      {"measurement": "Kochia plant response rating", "setting": "kochia [5]; [24]", "value": 90},
      {"measurement": "Plant response rating, Kochia", "setting": "kochia [5]; [25]", "value": 90},
      {"measurement": "Foxtail, Green plant response rating", "setting": "green foxtail [6]; [24]", "value": 100},
      {"measurement": "Plant response rating, Foxtail, Green", "setting": "green foxtail [6]; [25]", "value": 100},
      {"measurement": "Corn plant response rating", "setting": "corn [7]; [24]", "value": 20},
      {"measurement": "Plant response rating, Corn", "setting": "corn [7]; [25]", "value": 0},
      {"measurement": "Plant response rating, Kochia", "setting": "kochia [8]; 500 g ai/ha, postemergence", "value": 90},
      {"measurement": "Plant response rating, Kochia", "setting": "kochia [8]; Postemergence, 125 g ai/ha", "value": 90},
      {"measurement": "Plant response rating, Wheat", "setting": "wheat [9]", "value": 20},
      {"measurement": "Plant response rating, Rice (Flood)", "setting": "rice", "value": 0},
      {"measurement": "Blackgrass plant response rating", "setting": "blackgrass [10]; [24]", "value": 30},
      {"measurement": "Plant response rating, Blackgrass", "setting": "blackgrass [10]; [25]", "value": 30},
      {"measurement": "Wheat plant response rating", "setting": "wheat [11]; [24]", "value": 30},
      {"measurement": "Plant response rating, Wheat", "setting": "wheat [11]; [25]", "value": 0},
      {"measurement": "Oat, Wild plant response rating", "setting": "oat, wild [12]; [24]", "value": 40},
      {"measurement": "Plant response rating, Oat, Wild", "setting": "oat, wild [12]; [25]", "value": 20},
      {"measurement": "Plant response rating, Oat, Wild", "setting": "oat, wild [13]; 500 g ai/ha, postemergence", "value": 20},
      {"measurement": "Plant response rating, Oat, Wild", "setting": "oat, wild [13]; Postemergence, 125 g ai/ha", "value": 0},
      {"measurement": "Plant response rating, Pigweed, Palmer", "setting": "pigweed, palmer [14]; 500 g ai/ha, postemergence", "value": 100},
      {"measurement": "Plant response rating, Pigweed, Palmer", "setting": "pigweed, palmer [14]; Postemergence, 125 g ai/ha", "value": 90},
      {"measurement": "Plant response rating, Barnyardgrass", "setting": "barnyardgrass [15]; 500 g ai/ha, postemergence", "value": 50},
      {"measurement": "Plant response rating, Barnyardgrass", "setting": "barnyardgrass [15]; Postemergence, 125 g ai/ha", "value": 20},
      {"measurement": "Soybean plant response rating", "setting": "soybean [16]; [24]", "value": 40},
      {"measurement": "Plant response rating, Soybean", "setting": "soybean [16]; [25]", "value": 20},
      {"measurement": "Plant response rating, Corn", "setting": "corn [17]; 500 g ai/ha, postemergence", "value": 60},
      {"measurement": "Plant response rating, Corn", "setting": "corn [17]; Postemergence, 125 g ai/ha", "value": 10},
      {"measurement": "Plant response rating, Blackgrass", "setting": "blackgrass [18]; 500 g ai/ha, postemergence", "value": 60},
      {"measurement": "Plant response rating, Blackgrass", "setting": "blackgrass [18]; Postemergence, 125 g ai/ha", "value": 20},
      {"measurement": "Plant response rating, Horseweed", "setting": "horseweed; 500 g ai/ha, postemergence", "value": 70},
      {"measurement": "Plant response rating, Horseweed", "setting": "horseweed; Postemergence, 125 g ai/ha", "value": 50},
      {"measurement": "Ryegrass, Italian plant response rating", "setting": "ryegrass, Italian [19]; [24]", "value": 80},
      {"measurement": "Plant response rating, Ryegrass, Italian", "setting": "ryegrass, Italian [19]; [25]", "value": 70},
      {"measurement": "Plant response rating, Sedge, Umbrella (Flood)", "setting": "sedge, umbrella", "value": 25},
      {"measurement": "Plant response rating, Ragweed", "setting": "ragweed [20]", "value": 90},
      {"measurement": "Plant response rating, Foxtail, Green", "setting": "green foxtail [21]; 500 g ai/ha, postemergence", "value": 90},
      {"measurement": "Plant response rating, Foxtail, Green", "setting": "green foxtail [21]; Postemergence, 125 g ai/ha", "value": 70},
      {"measurement": "Plant response rating, Ryegrass, Italian", "setting": "ryegrass, Italian [22]", "value": 30},
      {"measurement": "Pigweed, Palmer plant response rating", "setting": "pigweed, palmer [23]; [24]", "value": 100},
      {"measurement": "Plant response rating, Pigweed, Palmer", "setting": "pigweed, palmer [23]; [25]", "value": 100}
    ]}
  ]
}
